Measurements reported in ChEMBL document CHEMBL1131826, “Targeting nitric oxide to cancer cells: cytotoxicity studies of glyco-S-nitrosothiols” (1999).
Values joined by “and” are separate entries in the source; they are usually repeats but may differ in a detail not shown here. Equal values may be shown once.

Tests used:
Format in all cases: functional
DU-145 [1] = experiment: Cytotoxicity towards DU145 human prostate cancer cell was expressed as median effect dose (MED)
DU-145 [2] = experiment: Cytotoxicity was evaluated against DU-145 human prostate cancer cells at 2 log dose
DU-145 [3] = experiment: Cytotoxicity was evaluated against DU-145 human prostate cancer cells at 10 uM concentration
DU-145 [4] = experiment: Cytotoxicity was evaluated against DU-145 human prostate cancer cells at 20 uM concentration
DU-145 [5] = experiment: Cytotoxicity was evaluated against DU-145 human prostate cancer cells at 0.3 log dose
DU-145 [6] = experiment: Cytotoxicity was evaluated against DU-145 human prostate cancer cells at 13 uM concentration
DU-145 [7] = experiment: Cytotoxicity was evaluated against DU-145 human prostate cancer cells at 0.7 log dose
DU-145 [8] = experiment: Cytotoxicity was evaluated against DU-145 human prostate cancer cells at 50 uM concentration
DU-145 [9] = experiment: Cytotoxicity was evaluated against DU-145 human prostate cancer cells at 1.4 log dose
DU-145 [10] = experiment: Cytotoxicity was evaluated against DU-145 human prostate cancer cells at 1.7 log dose
DU-145 [11] = experiment: Cytotoxicity was evaluated against DU-145 human prostate cancer cells at 15 uM concentration
DU-145 [12] = experiment: Cytotoxicity was evaluated against DU-145 human prostate cancer cells at 60 uM concentration
DU-145 [13] = experiment: Cytotoxicity was evaluated against DU-145 human prostate cancer cells at 100 uM concentration
DU-145 [14] = experiment: Cytotoxicity was evaluated against DU-145 human prostate cancer cells at 1.5 log dose
DU-145 [15] = experiment: Cytotoxicity was evaluated against DU-145 human prostate cancer cells at 35 uM concentration
DU-145 [16] = experiment: Cytotoxicity was evaluated against DU-145 human prostate cancer cells at 180 uM concentration
DU-145 [17] = experiment: Cytotoxicity was evaluated against DU-145 human prostate cancer cells at 110 uM concentration

Row | SMILES | MED (DU-145 [1]) [µM] | Log effect (DU-145 [2]) | Surviving fraction (DU-145 [3]) | Surviving fraction (DU-145 [4]) | Log effect (DU-145 [5]) | Surviving fraction (DU-145 [6]) | Log effect (DU-145 [7]) | Surviving fraction (DU-145 [8]) | Log effect (DU-145 [9]) | Log effect (DU-145 [10]) | Surviving fraction (DU-145 [11]) | Surviving fraction (DU-145 [12]) | Surviving fraction (DU-145 [13]) | Log effect (DU-145 [14]) | Surviving fraction (DU-145 [15]) | Surviving fraction (DU-145 [16]) | Surviving fraction (DU-145 [17])
1 | CC(=O)N[C@@H](C(=O)NC1C(O)OC(CO)C(O)C1O)C(C)(C)SN=O (stereo not given in full) | 32 | 0 and -0.01 |  |  |  |  |  |  |  |  |  |  |  |  |  |  | 
2 | CC(=O)N[C@@H](C(=O)N[C@]1(CO)O[C@H](CO)[C@@H](O)[C@@H]1O)C(C)(C)SN=O | 8.5 |  | 0.6 | 0.45 | -0.06 | 0.55 | -0.03 | 0.2 | 0.6 | 0.9 | 0.5 |  |  |  |  |  | 
3 | CC(=O)N[C@@H](C(=O)O)C(C)(C)SN=O | 110 |  |  |  |  |  |  |  | 0 |  |  | 1 | 0.6 | 0 | 1 | 0.2 | 0.5
